Test results taken from ChEMBL document CHEMBL1130765, “5-Aminomethylquinoxaline-2,3-diones, Part III: Arylamide derivatives as highly potent and selective glycine-site NMDA receptor antagonists” (Bioorg Med Chem Lett, 1998).

Columns and labels:
[1] = biological target: Glutamate receptor ionotropic, AMPA (Rattus norvegicus, UniProt P19490+P19491+P19492+P19493); test: In vitro binding assay for the displacement of [3H]AMPA from AMPA receptor; type: protein-complex assay
[2] = biological target: Glutamate receptor ionotropic, NMDA 1 (Rattus norvegicus, UniProt P35439); test: In vitro binding assay for the displacement of [3H]MDL-105519 from the glycine-site of NMDA receptors

| Compound | IC50 [1] [µM] | IC50 [2] [µM] |
| --- | --- | --- |
| Nc1ccccc1C(=O)NCc1cc([N+](=O)[O-])cc2[nH]c(=O)c(=O)[nH]c12 | 0.3 | 0.17 |
| O=C(NCc1cc(Br)cc2nc(O)c(O)nc12)c1cccs1 | 1.6 | 0.01 |
| O=C(Cc1ccccc1)NCc1cc([N+](=O)[O-])cc2[nH]c(=O)c(=O)[nH]c12 | 28.8 | 0.04 |
| O=C(NCc1cc([N+](=O)[O-])cc2[nH]c(=O)c(=O)[nH]c12)c1cc(O)c(O)c(O)c1 | 0.13 | 0.15 |
| O=C(NCc1cc(Br)cc2[nH]c(=O)c(=O)[nH]c12)Oc1ccccc1 | > 10 | 1.5 |
| CC(=O)OC(C(=O)NCc1cc(Br)cc2nc(O)c(O)nc12)c1ccccc1 (stereo unspecified) | > 10 | 0.04 |
| CC(C(=O)NCc1cc(Br)cc2nc(O)c(O)nc12)c1ccccc1 (stereo unspecified) | ~10 | 0.01 |
| COc1ccc(NC(=O)NCc2cc([N+](=O)[O-])cc3[nH]c(=O)c(=O)[nH]c23)cc1 | 0.3 | 0.03 |
| NS(=O)(=O)c1ccc(C(=O)NCc2cc([N+](=O)[O-])cc3[nH]c(=O)c(=O)[nH]c23)cc1 | 0.2 | 0.63 |
| O=C(NCc1cc([N+](=O)[O-])cc2nc(O)c(O)nc12)Nc1ccc(OC(F)(F)F)cc1 | 1.1 | 0.35 |
| O=C(CCc1ccccc1)NCc1cc(Br)cc2nc(O)c(O)nc12 | > 10 | 0.86 |
| Cc1ccsc1C(=O)NCc1cc(Br)cc2nc(O)c(O)nc12 | ~10 | 0.02 |
| COc1cc(C(=O)NCc2cc([N+](=O)[O-])cc3[nH]c(=O)c(=O)[nH]c23)cc(OC)c1OC | 0.064 | 0.2 |
| O=C(Cc1cccc(Cl)c1)NCc1cc(Br)cc2nc(O)c(O)nc12 | > 10 | 0.04 |
| O=C(NCc1cc([N+](=O)[O-])cc2nc(O)c(O)nc12)Nc1ccccc1 | 4.34 | 0.9 |
| O=C(Cc1ccsc1)NCc1cc(Br)cc2nc(O)c(O)nc12 | 11.3 | 0.01 |
| COc1ccccc1NC(=O)NCc1cc([N+](=O)[O-])cc2nc(O)c(O)nc12 | 0.63 | 0.03 |
| O=C(Cc1ccccc1)NCc1cc(Cl)cc2nc(O)c(O)nc12 | ~10 | 0.01 |
| O=C(Cc1ccccc1)NCc1cccc2[nH]c(=O)c(=O)[nH]c12 | > 10 | 0.09 |
| COc1ccc(CC(=O)NCc2cc(Br)cc3[nH]c(=O)c(=O)[nH]c23)cc1OC | > 10 | 0.05 |
| O=C(NCc1cc(Br)cc2nc(O)c(O)nc12)c1cc(C(F)(F)F)cc(C(F)(F)F)c1 | > 10 | > 10 |
| O=C(Cc1ccccc1)NCc1cc(P(=O)(O)O)cc2[nH]c(=O)c(=O)[nH]c12 | > 10 | > 10 |

Further lines, results first:

| IC50 [1] [µM] | IC50 [2] [µM] | Compound |
| --- | --- | --- |
| 0.15 | 0.04 | O=C(NCc1cc([N+](=O)[O-])cc2[nH]c(=O)c(=O)[nH]c12)c1ccccc1O |
| > 10 | 0.007 | O=C(Cc1ccccc1Cl)NCc1cc(Br)cc2[nH]c(=O)c(=O)[nH]c12 |
| ~10 | 0.11 | Cc1ccc(C(=O)NCc2cc(Br)cc3nc(O)c(O)nc23)cn1 |
| > 10 | 20 | O=C(Cc1ccc(Cl)cc1)NCc1cc(Br)cc2nc(O)c(O)nc12 |
| ~10 | 0.25 | O=C(NCc1cc(Br)cc2nc(O)c(O)nc12)c1ccncc1 |
| > 10 | 3.9 | O=C(Cc1ccc2c(c1)OCO2)NCc1cc(Br)cc2[nH]c(=O)c(=O)[nH]c12 |
| ~10 | 0.05 | O=C(NCc1cc(Br)cc2[nH]c(=O)c(=O)[nH]c12)C(O)c1ccccc1 (stereo unspecified) |
| 6.8 | 0.04 | O=C(NCc1cc(Br)cc2[nH]c(=O)c(=O)[nH]c12)c1ccco1 |
| 4.3 | 0.28 | O=C(NCc1cc(Br)cc2nc(O)c(O)nc12)c1cccnc1 |
| > 10 | 0.03 | COc1cccc(CC(=O)NCc2cc(Br)cc3[nH]c(=O)c(=O)[nH]c23)c1 |
| > 10 | 1.2 | O=C(Cc1ccc([N+](=O)[O-])cc1)NCc1cc(Br)cc2nc(O)c(O)nc12 |
| 1.7 | 0.03 | Cc1ccc(C(=O)NCc2cc(Br)cc3[nH]c(=O)c(=O)[nH]c23)s1 |
| ~10 | 0.11 | O=C(NCc1cc(Br)cc2nc(O)c(O)nc12)OCc1ccccc1 |
| > 10 | 0.04 | O=C(Cc1cccc([N+](=O)[O-])c1)NCc1cc(Br)cc2[nH]c(=O)c(=O)[nH]c12 |
| ~10 | 1.8 | Cc1ncccc1C(=O)NCc1cc(Br)cc2nc(O)c(O)nc12 |
| > 10 | 0.02 | Cn1cccc1C(=O)NCc1cc(Br)cc2[nH]c(=O)c(=O)[nH]c12 |
| > 10 | 4 | O=C(NCc1cc(Br)cc2[nH]c(=O)c(=O)[nH]c12)C(=O)c1ccccc1 |
| 1.7 | 0.06 | O=C(NCc1cc(Br)cc2nc(O)c(O)nc12)c1ccccc1 |
| 2 | 0.01 | O=C(NCc1cc(Br)cc2[nH]c(=O)c(=O)[nH]c12)c1ccsc1 |
| > 10 | 0.01 | O=C(Cc1ccccc1)NCc1cc(Br)cc2[nH]c(=O)c(=O)[nH]c12 |
| > 10 | 0.02 | O=C(Cc1ccccc1[N+](=O)[O-])NCc1cc(Br)cc2nc(O)c(O)nc12 |
